Test results from PubChem BioAssay AID2060894 (Molecular Pharmacology Branch, DTP, NCI, 2025).

Tested on: K12877-001-R-J1-PDC complex spheroid viability
Test: Anticancer human tumor K12877-001-R-J1-PDC patient-derived lung adenocarcinoma cell line growth inhibition [RAS]
Settings: for IC50: curve of first compound; for viability, T/C: stronger effect = lower value
Procedure, shortened: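 Tumour cells grown as complex spheroids with HUVEC endothelial cells and mesenchymal stem cells, treated with RAS pathway inhibitor combinations. Each agent spans half-log steps from near clinical Cmax, or 10 microM where Cmax is unknown.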

[1] = second compound 0.000949 µM, first compound 0.0316 µM
[2] = second compound 0.000949 µM, first compound 0.1 µM
[3] = second compound 0.000949 µM, first compound 0.316 µM
[4] = second compound 0.000949 µM, first compound 1 µM
[5] = second compound 0.000949 µM, first compound 3.16 µM
[6] = second compound 0.000949 µM, first compound 10 µM
[7] = second compound 0.003 µM, first compound 0.0316 µM
[8] = second compound 0.003 µM, first compound 0.1 µM
[9] = second compound 0.003 µM, first compound 0.316 µM
[10] = second compound 0.003 µM, first compound 1 µM
[11] = second compound 0.003 µM, first compound 3.16 µM
[12] = second compound 0.003 µM, first compound 10 µM
[13] = second compound 0.00949 µM, first compound 0.0316 µM
[14] = second compound 0.00949 µM, first compound 0.1 µM
[15] = second compound 0.00949 µM, first compound 0.316 µM
[16] = second compound 0.00949 µM, first compound 1 µM
[17] = second compound 0.00949 µM, first compound 3.16 µM
[18] = second compound 0.00949 µM, first compound 10 µM
[19] = second compound 0.03 µM, first compound 0.0316 µM
[20] = second compound 0.03 µM, first compound 0.1 µM
[21] = second compound 0.03 µM, first compound 0.316 µM
[22] = second compound 0.03 µM, first compound 1 µM
[23] = second compound 0.03 µM, first compound 3.16 µM
[24] = second compound 0.03 µM, first compound 10 µM
[25] = second compound 0.0949 µM, first compound 0.0316 µM
[26] = second compound 0.0949 µM, first compound 0.1 µM
[27] = second compound 0.0949 µM, first compound 0.316 µM
[28] = second compound 0.0949 µM, first compound 1 µM
[29] = second compound 0.0949 µM, first compound 3.16 µM
[30] = second compound 0.0949 µM, first compound 10 µM
[31] = second compound 0.3 µM, first compound 0.0316 µM
[32] = second compound 0.3 µM, first compound 0.1 µM
[33] = second compound 0.3 µM, first compound 0.316 µM
[34] = second compound 0.3 µM, first compound 1 µM
[35] = second compound 0.3 µM, first compound 3.16 µM
[36] = second compound 0.3 µM, first compound 10 µM
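Note: spheroids exposed to agents for one week before readout.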

Cc1nc(N2CCC3(CC2)COC(C)C3N)c(CO)nc1Sc1ccnc(N)c1Cl (stereo unspecified) + CCn1c(-c2cccnc2C(C)OC)c2c3cc(ccc31)N1CCOC(CC(NC(=O)C(C(C)C)N(C)C(=O)C3(F)CCN(C(=O)C#CC(C)(C)N(C)C)CC3)C(=O)N3CCCC(N3)C(=O)OCC(C)(C)C2)C1
IC50 (second compound 0.000949 µM): 6.23 µM | IC50 (second compound 0.003 µM): 1.85 µM | IC50 (second compound 0.00949 µM): 2.63 µM | IC50 (second compound 0.03 µM): 0.875 µM | IC50 (second compound 0.0949 µM): 1.2 µM | IC50 (second compound 0.3 µM): 0.424 µM | viability, T/C [1]: 83.6% | viability, T/C [2]: 71.1% | viability, T/C [3]: 71.5% | viability, T/C [4]: 62.5% | viability, T/C [5]: 52.8% | viability, T/C [6]: 47.3% | viability, T/C [7]: 73.6% | viability, T/C [8]: 66.2% | viability, T/C [9]: 69.8% | viability, T/C [10]: 55.6% | viability, T/C [11]: 45.6% | viability, T/C [12]: 44% | viability, T/C [13]: 76.4% | viability, T/C [14]: 76% | viability, T/C [15]: 57.8% | viability, T/C [16]: 57.4% | viability, T/C [17]: 50.2% | viability, T/C [18]: 42.1% | viability, T/C [19]: 83.2% | viability, T/C [20]: 73.5% | viability, T/C [21]: 59.2% | viability, T/C [22]: 49.4% | viability, T/C [23]: 40.7% | viability, T/C [24]: 36.5% | viability, T/C [25]: 72.6% | viability, T/C [26]: 70.8% | viability, T/C [27]: 58.3% | viability, T/C [28]: 48.5% | viability, T/C [29]: 46.4% | viability, T/C [30]: 33.8% | viability, T/C [31]: 57.1% | viability, T/C [32]: 67.9% | viability, T/C [33]: 53.3% | viability, T/C [34]: 38.3% | viability, T/C [35]: 37.5% | viability, T/C [36]: 31.2%

CC(C)NCC(C(=O)N1CCN(c2ncnc3c2C(C)CC3O)CC1)c1ccc(Cl)cc1 (stereo unspecified) + CCn1c(-c2cccnc2C(C)OC)c2c3cc(ccc31)N1CCOC(CC(NC(=O)C(C(C)C)N(C)C(=O)C3(F)CCN(C(=O)C#CC(C)(C)N(C)C)CC3)C(=O)N3CCCC(N3)C(=O)OCC(C)(C)C2)C1
IC50 (second compound 0.000949 µM): 1.26 µM | IC50 (second compound 0.003 µM): 1.28 µM | IC50 (second compound 0.00949 µM): 1.43 µM | IC50 (second compound 0.03 µM): 0.956 µM | IC50 (second compound 0.0949 µM): 0.488 µM | IC50 (second compound 0.3 µM): 0.17 µM | viability, T/C [1]: 88.5% | viability, T/C [2]: 76.6% | viability, T/C [3]: 80.5% | viability, T/C [4]: 55.5% | viability, T/C [5]: 26.7% | viability, T/C [6]: 18.3% | viability, T/C [7]: 80.6% | viability, T/C [8]: 88% | viability, T/C [9]: 67.1% | viability, T/C [10]: 60.6% | viability, T/C [11]: 26.5% | viability, T/C [12]: 19.6% | viability, T/C [13]: 78.5% | viability, T/C [14]: 68.5% | viability, T/C [15]: 82.8% | viability, T/C [16]: 58.7% | viability, T/C [17]: 27.9% | viability, T/C [18]: 16% | viability, T/C [19]: 75.7% | viability, T/C [20]: 68.9% | viability, T/C [21]: 81.6% | viability, T/C [22]: 49% | viability, T/C [23]: 26.8% | viability, T/C [24]: 15.9% | viability, T/C [25]: 72.7% | viability, T/C [26]: 73.5% | viability, T/C [27]: 51.8% | viability, T/C [28]: 41.5% | viability, T/C [29]: 23.1% | viability, T/C [30]: 12.1% | viability, T/C [31]: 57.8% | viability, T/C [32]: 52.8% | viability, T/C [33]: 46.3% | viability, T/C [34]: 23.5% | viability, T/C [35]: 19% | viability, T/C [36]: 10.6%

C=CC(=O)N1CCN(c2nc(OCC3CCCN3C)nc3c(F)c(-c4nc(N)cc(C)c4C(F)(F)F)c(Cl)cc23)C(C)C1 (stereo unspecified) + CCn1c(-c2cc(N3CCN(C)CC3)cnc2C(C)OC)c2c3cc(ccc31)-c1csc(n1)CC(NC(=O)C1CC1C)C(=O)N1CCCC(N1)C(=O)OCC(C)(C)C2
IC50 (second compound 0.000949 µM): > 1 µM | IC50 (second compound 0.003 µM): > 1 µM | IC50 (second compound 0.00949 µM): > 1 µM | IC50 (second compound 0.03 µM): > 1 µM | IC50 (second compound 0.0949 µM): > 1 µM | IC50 (second compound 0.3 µM): > 1 µM | viability, T/C (second compound 0.000949 µM, first compound 0.00316 µM): 80.8% | viability, T/C (second compound 0.000949 µM, first compound 0.01 µM): 71.5% | viability, T/C [1]: 78.4% | viability, T/C [2]: 69.2% | viability, T/C [3]: 69.5% | viability, T/C [4]: 68% | viability, T/C (second compound 0.003 µM, first compound 0.00316 µM): 66.2% | viability, T/C (second compound 0.003 µM, first compound 0.01 µM): 66.7% | viability, T/C [7]: 66.4% | viability, T/C [8]: 60.6% | viability, T/C [9]: 62.7% | viability, T/C [10]: 67% | viability, T/C (second compound 0.00949 µM, first compound 0.00316 µM): 69.7% | viability, T/C (second compound 0.00949 µM, first compound 0.01 µM): 62% | viability, T/C [13]: 70.1% | viability, T/C [14]: 76.1% | viability, T/C [15]: 63.6% | viability, T/C [16]: 58.2% | viability, T/C (second compound 0.03 µM, first compound 0.00316 µM): 93.4% | viability, T/C (second compound 0.03 µM, first compound 0.01 µM): 84.5% | viability, T/C [19]: 92.3% | viability, T/C [20]: 81.2% | viability, T/C [21]: 81.2% | viability, T/C [22]: 97.2% | viability, T/C (second compound 0.0949 µM, first compound 0.00316 µM): 116% | viability, T/C (second compound 0.0949 µM, first compound 0.01 µM): 95.8% | viability, T/C [25]: 101% | viability, T/C [26]: 102% | viability, T/C [27]: 97.6% | viability, T/C [28]: 98% | viability, T/C (second compound 0.3 µM, first compound 0.00316 µM): 96.8% | viability, T/C (second compound 0.3 µM, first compound 0.01 µM): 93.4% | viability, T/C [31]: 90.7% | viability, T/C [32]: 88.6% | viability, T/C [33]: 84.3% | viability, T/C [34]: 91.1%
